Reference: PubChem BioAssay (NCI)
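Exposure lasted 48 hours, with cells grown in 96-well plates and compounds tested at five concentrations. GI50 is the concentration that inhibits growth by half. TGI: concentration producing complete growth inhibition.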

What was measured:
Test in all cases: DTP human tumour cell line panel, 48 h
786-0 renal = system: 786-0 renal
A498 renal = system: A498 renal
A549 NSCLC = system: A549 NSCLC
ACHN renal = system: ACHN renal
BT-549 breast = system: BT-549 breast
CAKI-1 renal = system: CAKI-1 renal
COLO 205 colon = system: COLO 205 colon
DU-145 prostate = system: DU-145 prostate
HCC-2998 colon = system: HCC-2998 colon
HCT-116 colon = system: HCT-116 colon
HCT-15 colon = system: HCT-15 colon
HL-60(TB) leukemia = system: HL-60(TB) leukemia
HOP-62 NSCLC = system: HOP-62 NSCLC
HOP-92 NSCLC = system: HOP-92 NSCLC
HS 578T breast = system: HS 578T breast
HT29 colon = system: HT29 colon
IGROV1 ovarian = system: IGROV1 ovarian
K-562 leukemia = system: K-562 leukemia
KM12 colon = system: KM12 colon
LOX IMVI melanoma = system: LOX IMVI melanoma
M14 melanoma = system: M14 melanoma
MALME-3M melanoma = system: MALME-3M melanoma
MCF7 breast = system: MCF7 breast
MDA-MB-231 breast = system: MDA-MB-231 breast
MDA-MB-435 = system: MDA-MB-435
MOLT-4 leukemia = system: MOLT-4 leukemia
NCI-H226 lung = system: NCI-H226 lung
NCI-H23 lung = system: NCI-H23 lung
NCI-H460 lung = system: NCI-H460 lung
NCI-H522 lung = system: NCI-H522 lung
NCI/ADR-RES ovarian = system: NCI/ADR-RES ovarian
OVCAR-3 ovarian = system: OVCAR-3 ovarian
OVCAR-4 ovarian = system: OVCAR-4 ovarian
OVCAR-5 ovarian = system: OVCAR-5 ovarian
OVCAR-8 ovarian = system: OVCAR-8 ovarian
PC-3 prostate = system: PC-3 prostate
RPMI-8226 leukemia = system: RPMI-8226 leukemia
RXF 393 renal = system: RXF 393 renal
SF-268 CNS = system: SF-268 CNS
SF-295 CNS = system: SF-295 CNS
SF-539 CNS = system: SF-539 CNS
SK-MEL-2 melanoma = system: SK-MEL-2 melanoma
SK-MEL-28 melanoma = system: SK-MEL-28 melanoma
SK-MEL-5 melanoma = system: SK-MEL-5 melanoma
SK-OV-3 ovarian = system: SK-OV-3 ovarian
SN12C renal = system: SN12C renal
SNB-19 CNS = system: SNB-19 CNS
SNB-75 CNS = system: SNB-75 CNS
SR leukemia = system: SR leukemia
SW-620 colon = system: SW-620 colon
T-47D breast = system: T-47D breast
TK-10 renal = system: TK-10 renal
U251 CNS = system: U251 CNS
UACC-257 melanoma = system: UACC-257 melanoma
UACC-62 melanoma = system: UACC-62 melanoma
UO-31 renal = system: UO-31 renal

Q: What does the source list for COc1ccc(C2C=C(c3ccc(OC)c(OC)c3)N=C3SC=CN32)c(Br)c1 (configuration not stated)?
A: GI50 (786-0 renal): 2.72 µM; TGI (786-0 renal): 8.22 µM; GI50 (A498 renal): 3.47 µM; TGI (A498 renal): 17.1 µM; GI50 (A549 NSCLC): 2.4 µM; TGI (A549 NSCLC): 7.86 µM; GI50 (ACHN renal): 2 µM; TGI (ACHN renal): 4.33 µM; GI50 (BT-549 breast): 2.1 µM; TGI (BT-549 breast): 5.71 µM; GI50 (CAKI-1 renal): 13.4 µM; TGI (CAKI-1 renal): 33.8 µM; GI50 (COLO 205 colon): 4.56 µM; TGI (COLO 205 colon): 16.4 µM; GI50 (DU-145 prostate): 3.44 µM; TGI (DU-145 prostate): 11.6 µM; GI50 (HCC-2998 colon): 2.02 µM; TGI (HCC-2998 colon): 3.71 µM; GI50 (HCT-116 colon): 1.52 µM; TGI (HCT-116 colon): 3.25 µM; GI50 (HCT-15 colon): 1.76 µM; TGI (HCT-15 colon): 5.13 µM; GI50 (HL-60(TB) leukemia): 3.06 µM; TGI (HL-60(TB) leukemia): 23 µM; GI50 (HOP-62 NSCLC): 3.16 µM; TGI (HOP-62 NSCLC): 11.1 µM; GI50 (HOP-92 NSCLC): 8.66 µM; TGI (HOP-92 NSCLC): 38.3 µM; GI50 (HS 578T breast): 3.41 µM; TGI (HS 578T breast): > 100 µM; GI50 (HT29 colon): 2.02 µM; TGI (HT29 colon): 4.26 µM; GI50 (IGROV1 ovarian): 2.25 µM; TGI (IGROV1 ovarian): 5.51 µM; GI50 (K-562 leukemia): 2.82 µM; TGI (K-562 leukemia): > 100 µM; GI50 (KM12 colon): 1.83 µM; TGI (KM12 colon): 3.5 µM; GI50 (LOX IMVI melanoma): 1.88 µM; TGI (LOX IMVI melanoma): 3.74 µM; GI50 (M14 melanoma): 2.23 µM; TGI (M14 melanoma): 5.32 µM; GI50 (MALME-3M melanoma): 13.5 µM; TGI (MALME-3M melanoma): 32.6 µM; GI50 (MCF7 breast): 0.807 µM; TGI (MCF7 breast): 2.24 µM; GI50 (MDA-MB-231 breast): 4.5 µM; TGI (MDA-MB-231 breast): 21.3 µM; GI50 (MDA-MB-435): 2.8 µM; TGI (MDA-MB-435): 10.5 µM; GI50 (MOLT-4 leukemia): 3.16 µM; TGI (MOLT-4 leukemia): 30.6 µM; GI50 (NCI-H226 lung): 2.84 µM; TGI (NCI-H226 lung): 25.5 µM; GI50 (NCI-H23 lung): 9.45 µM; TGI (NCI-H23 lung): 27.3 µM; GI50 (NCI-H460 lung): 5.15 µM; TGI (NCI-H460 lung): 25.8 µM; GI50 (NCI-H522 lung): 3.11 µM; TGI (NCI-H522 lung): 11.7 µM; GI50 (NCI/ADR-RES ovarian): 4.59 µM; TGI (NCI/ADR-RES ovarian): 61.2 µM; GI50 (OVCAR-3 ovarian): 2.24 µM; TGI (OVCAR-3 ovarian): 4.91 µM; GI50 (OVCAR-4 ovarian): 7.1 µM; TGI (OVCAR-4 ovarian): 49.4 µM; GI50 (OVCAR-5 ovarian): 6.44 µM; TGI (OVCAR-5 ovarian): 28.4 µM; GI50 (OVCAR-8 ovarian): 3.2 µM; TGI (OVCAR-8 ovarian): 17.1 µM; GI50 (PC-3 prostate): 3.88 µM; TGI (PC-3 prostate): 41 µM; GI50 (RPMI-8226 leukemia): 1.77 µM; TGI (RPMI-8226 leukemia): 5.98 µM; GI50 (RXF 393 renal): 2.08 µM; TGI (RXF 393 renal): 3.98 µM; GI50 (SF-268 CNS): 3.42 µM; TGI (SF-268 CNS): 14.3 µM; GI50 (SF-295 CNS): 11.5 µM; TGI (SF-295 CNS): 26.9 µM; GI50 (SF-539 CNS): 1.87 µM; TGI (SF-539 CNS): 4.18 µM; GI50 (SK-MEL-2 melanoma): 14.4 µM; TGI (SK-MEL-2 melanoma): 29.8 µM; GI50 (SK-MEL-28 melanoma): 2.3 µM; TGI (SK-MEL-28 melanoma): 5.62 µM; GI50 (SK-MEL-5 melanoma): 3.02 µM; TGI (SK-MEL-5 melanoma): 10.1 µM; GI50 (SK-OV-3 ovarian): 4.52 µM; TGI (SK-OV-3 ovarian): 16.7 µM; GI50 (SN12C renal): 4.77 µM; TGI (SN12C renal): 21.2 µM; GI50 (SNB-19 CNS): 7.3 µM; TGI (SNB-19 CNS): 21.6 µM; GI50 (SNB-75 CNS): 3.1 µM; TGI (SNB-75 CNS): 14.3 µM; GI50 (SR leukemia): 1.95 µM; TGI (SR leukemia): 4.79 µM; GI50 (SW-620 colon): 1.85 µM; TGI (SW-620 colon): 3.77 µM; GI50 (T-47D breast): 3.2 µM; TGI (T-47D breast): 11.5 µM; GI50 (TK-10 renal): 3.64 µM; TGI (TK-10 renal): 15.3 µM; GI50 (U251 CNS): 1.6 µM; TGI (U251 CNS): 3.24 µM; GI50 (UACC-257 melanoma): 2.98 µM; TGI (UACC-257 melanoma): 12 µM; GI50 (UACC-62 melanoma): 2.47 µM; TGI (UACC-62 melanoma): 7.06 µM; GI50 (UO-31 renal): 1.54 µM; TGI (UO-31 renal): 3.77 µM
